Measured values: US20230009626A1 (ICHNOS SCIENCES S.A., priority 2018, published 2023)

Biological target: HPK1 (MAP4K1) (Homo sapiens, UniProt Q92918)
Assay: FRET Assay for HPK1 (MAP4K1): one step binding assay, displacement of labeled tracer
Settings: for inhibition at 1 µM: 1 μM compound; for inhibition at 1 µM / inhibition at 10 µM: FRET ratio 665/620, percent of control; for inhibition at 10 µM: 10 μM compound; for IC50: dose response curve, nonlinear regression
In short: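 Percent inhibition at 1.0 and 10.0 μM and IC50 by nonlinear regression were derived from loss of FRET signal versus control. The signal runs from Eu-anti-GST antibody (4 nM) bound to 10 nM HPK1 kinase to Alexa Fluor 647 Kinase Tracer 222 (20 nM), added after a 15-min on-ice compound pre-incubation. Binding then proceeded 1 h at room temperature in HEPES pH 7.5 buffer with 10 mM MgCl2, 1 mM EGTA, 0.01% Brij-35 and 3% DMSO.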

HPK1 (MAP4K1), sequence (Q92918 whole entry): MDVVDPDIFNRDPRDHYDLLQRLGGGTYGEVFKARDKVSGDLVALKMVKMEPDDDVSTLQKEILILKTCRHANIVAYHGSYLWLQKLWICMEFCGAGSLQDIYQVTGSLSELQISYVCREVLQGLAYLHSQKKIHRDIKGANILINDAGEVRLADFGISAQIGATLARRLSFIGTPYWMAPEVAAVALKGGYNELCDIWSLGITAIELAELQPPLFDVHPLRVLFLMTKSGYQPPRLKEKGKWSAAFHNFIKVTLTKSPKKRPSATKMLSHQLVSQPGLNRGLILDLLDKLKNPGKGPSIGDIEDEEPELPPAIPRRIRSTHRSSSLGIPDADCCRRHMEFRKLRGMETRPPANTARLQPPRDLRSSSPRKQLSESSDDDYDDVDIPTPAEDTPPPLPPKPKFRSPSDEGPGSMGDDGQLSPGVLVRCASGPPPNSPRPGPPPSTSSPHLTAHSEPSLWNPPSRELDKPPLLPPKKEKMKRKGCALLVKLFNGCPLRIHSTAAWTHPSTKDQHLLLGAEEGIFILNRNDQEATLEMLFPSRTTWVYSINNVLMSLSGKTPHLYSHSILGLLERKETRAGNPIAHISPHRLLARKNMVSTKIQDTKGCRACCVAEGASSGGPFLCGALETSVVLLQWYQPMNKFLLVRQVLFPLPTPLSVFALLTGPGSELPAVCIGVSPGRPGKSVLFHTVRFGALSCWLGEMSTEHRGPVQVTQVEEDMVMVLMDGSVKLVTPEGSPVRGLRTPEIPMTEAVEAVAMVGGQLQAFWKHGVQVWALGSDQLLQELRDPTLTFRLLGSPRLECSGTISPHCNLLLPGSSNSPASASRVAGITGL

SMILES	inhibition at 1 µM [%]	inhibition at 10 µM [%]	IC50 [nM]
C/C(Nc1cc(C)nn1C)=C1/C(=O)Nc2cnc(-c3cnccc3C)cc21 [Example 132, (Z)-3-(1-((1,3-Dimethyl-1H-pyrazol-5-yl)amino)ethylidene)-5-(4-methylpyridin-3-yl)-1H-pyrrolo[2,3-c]pyridin-2(3H)-one]	81	80.9	100 to 500
C/C(Nc1ccn(C[C@H](C)O)n1)=C1/C(=O)Nc2cnc(-c3cnccc3C)cc21 [Example 133, (S,Z)-3-(1-((1-(2-Hydroxypropyl)-1H-pyrazol-3-yl)amino)ethylidene)-5-(4-methylpyridin-3-yl)-1H-pyrrolo[2,3-c]pyridin-2(3H)-one]	79.9	88	< 50
C/C(Nc1ccn([C@@H](C)CO)n1)=C1/C(=O)Nc2cnc(-c3cnccc3C)cc21 [Example 134, (S,Z)-3-(1-((1-(1-Hydroxypropan-2-yl)-1H-pyrazol-3-yl)amino)ethylidene)-5-(4-methylpyridin-3-yl)-1H-pyrrolo[2,3-c]pyridin-2(3H)-one]	83.6	85.2	< 50
C/C(Nc1cn(C)nc1C)=C1/C(=O)Nc2cnc(-c3cnccc3C)cc21 [Example 135, (Z)-3-(1-((1,3-Dimethyl-1H-pyrazol-4-yl)amino)ethylidene)-5-(4-methylpyridin-3-yl)-1H-pyrrolo[2,3-c]pyridin-2(3H)-one]	78.5	83.9	50 to 100
C/C(Nc1ccn(C[C@@H](C)O)n1)=C1/C(=O)Nc2cnc(-c3cnccc3C)cc21 [Example 136, (R,Z)-3-(1-((1-(2-Hydroxypropyl)-1H-pyrazol-3-yl)amino)ethylidene)-5-(4-methylpyridin-3-yl)-1H-pyrrolo[2,3-c]pyridin-2(3H)-one]	82.3	78.9	< 50
C/C(Nc1ccn([C@H](C)CO)n1)=C1/C(=O)Nc2cnc(-c3cnccc3C)cc21 [Example 137, (R,Z)-3-(1-((1-(1-Hydroxypropan-2-yl)-1H-pyrazol-3-yl)amino)ethylidene)-5-(4-methylpyridin-3-yl)-1H-pyrrolo[2,3-c]pyridin-2(3H)-one]	80.7	80.2	< 50
C/C(Nc1ccn(C)n1)=C1/C(=O)Nc2cnc(-c3cncc4c3OCC(=O)N4)cc21 [Example 138, (Z)-8-(3-(1-((1-Methyl-1H-pyrazol-3-yl)amino)ethylidene)-2-oxo-2,3-dihydro-1H-pyrrolo[2,3-c]pyridin-5-yl)-2H-pyrido[4,3-b][1,4]oxazin-3(4H)-one]	90.7	–	< 50
C/C(Nc1ccn(C)n1)=C1/C(=O)Nc2cc(C#N)c(-c3cnccc3C)cc21 [Example 139, (Z)-3-(1-((1-Methyl-1H-pyrazol-3-yl)amino)ethylidene)-5-(4-methylpyridin-3-yl)-2-oxoindoline-6-carbonitrile]	77	84.5	< 50
C/C(Nc1ccn(C)n1)=C1/C(=O)Nc2cnc(-c3cncc(N)c3C)cc21 [Example 140, (Z)-5-(5-Amino-4-methylpyridin-3-yl)-3-(1-((1-methyl-1H-pyrazol-3-yl)amino)ethylidene)-1H-pyrrolo[2,3-c]pyridin-2(3H)-one]	79.8	91.3	< 50
C/C(Nc1ccn(CC(C)(C)O)n1)=C1/C(=O)Nc2cnc(-c3c(C)cccc3F)cc21 [Example 141, (Z)-5-(2-Fluoro-6-methylphenyl)-3-(1-((1-(2-hydroxy-2-methylpropyl)-1H-pyrazol-3-yl)amino)ethylidene)-1H-pyrrolo[2,3-c]pyridin-2(3H)-one]	80	85.9	50 to 100
C/C(Nc1ccn(C(C)(C)C#N)n1)=C1/C(=O)Nc2cnc(-c3c(C)cccc3F)cc21 [Example 142, (Z)-2-(3-((1-(5-(2-Fluoro-6-methylphenyl)-2-oxo-1H-pyrrolo[2,3-c]pyridin-3(2H)-ylidene)ethyl)amino)-1H-pyrazol-1-yl)-2-methylpropanenitrile]	77.9	80.8	< 50
COCCn1ccc(N/C(C)=C2\C(=O)Nc3cnc(-c4cnccc4C)cc32)n1 [Example 143, (Z)-3-(1-((1-(2-Methoxyethyl)-1H-pyrazol-3-yl)amino)ethylidene)-5-(4-methylpyridin-3-yl)-1H-pyrrolo[2,3-c]pyridin-2(3H)-one]	80.4	83.8	< 50
COc1cccc(F)c1-c1cc2c(cn1)NC(=O)/C2=C(/C)Nc1ccn(CC(C)(C)O)n1 [Example 144, (Z)-5-(2-Fluoro-6-methoxyphenyl)-3-(1-((1-(2-hydroxy-2-methylpropyl)-1H-pyrazol-3-yl)amino)ethylidene)-1H-pyrrolo[2,3-c]pyridin-2(3H)-one]	80.5	84.6	< 50
C/C(Nc1ccn(C(C)(C)CO)n1)=C1/C(=O)Nc2cnc(-c3cnccc3C)cc21 [Example 145, (Z)-3-(1-((1-(1-Hydroxy-2-methylpropan-2-yl)-1H-pyrazol-3-yl)amino)ethylidene)-5-(4-methylpyridin-3-yl)-1H-pyrrolo[2,3-c]pyridin-2(3H)-one]	79.4	83.9	< 50
C/C(Nc1cc2n(n1)CCOC2)=C1/C(=O)Nc2cnc(-c3cnccc3C)cc21 [Example 146, (Z)-3-(1-((6,7-Dihydro-4H-pyrazolo[5,1-c][1,4]oxazin-2-yl)amino)ethylidene)-5-(4-methylpyridin-3-yl)-1H-pyrrolo[2,3-c]pyridin-2(3H)-one]	80.2	88.7	< 50
C/C(Nc1ccn(C2CCN(C3COC3)CC2)n1)=C1/C(=O)Nc2cnc(-c3cnccc3C)cc21 [Example 147, (Z)-5-(4-Methylpyridin-3-yl)-3-(1-((1-(1-(oxetan-3-yl)piperidin-4-yl)-1H-pyrazol-3-yl)amino)ethylidene)-1H-pyrrolo[2,3-c]pyridin-2(3H)-one]	74.9	75.9	< 50
C/C(Nc1cnn(C)c1)=C1/C(=O)Nc2cnc(-c3cncc(F)c3C)cc21 [Example 148, (Z)-5-(5-Fluoro-4-methylpyridin-3-yl)-3-(1-((1-methyl-1H-pyrazol-4-yl)amino)ethylidene)-1H-pyrrolo[2,3-c]pyridin-2(3H)-one]	82.4	94	< 50
C/C(Nc1cc2n(n1)CC(=O)N(C(C)C)C2)=C1/C(=O)Nc2cnc(-c3cnccc3C)cc21 [Example 149, (Z)-5-Isopropyl-2-((1-(5-(4-methylpyridin-3-yl)-2-oxo-1H-pyrrolo[2,3-c]pyridin-3(2H)-ylidene)ethyl)amino)-4,5-dihydropyrazolo[1,5-a]pyrazin-6(7H)-one]	78.7	81.7	< 50
C/C(Nc1cc(C(C)(C)O)n(C)n1)=C1/C(=O)Nc2cnc(-c3cnccc3C)cc21 [Example 150, (Z)-3-(1-((5-(2-Hydroxypropan-2-yl)-1-methyl-1H-pyrazol-3-yl)amino)ethylidene)-5-(4-methylpyridin-3-yl)-1H-pyrrolo[2,3-c]pyridin-2(3H)-one]	86.7	86.1	< 50
C/C(Nc1cnn(C)c1)=C1/C(=O)Nc2cc(C#N)c(-c3cnccc3C)cc21 [Example 151, (Z)-3-(1-((1-Methyl-1H-pyrazol-4-yl)amino)ethylidene)-5-(4-methylpyridin-3-yl)-2-oxoindoline-6-carbonitrile]	85.2	65.2	< 50
C/C(Nc1cc(C2CC2)n(C)n1)=C1/C(=O)Nc2cnc(-c3cnccc3C)cc21 [Example 152, (Z)-3-(1-((5-Cyclopropyl-1-methyl-1H-pyrazol-3-yl)amino)ethylidene)-5-(4-methylpyridin-3-yl)-1H-pyrrolo[2,3-c]pyridin-2(3H)-one]	74.3	70.4	< 50
C/C(Nc1cnn(C[C@@H](C)O)c1)=C1/C(=O)Nc2cnc(-c3cnccc3C)cc21 [Example 153, (R,Z)-3-(1-((1-(2-Hydroxypropyl)-1H-pyrazol-4-yl)amino)ethylidene)-5-(4-methylpyridin-3-yl)-1H-pyrrolo[2,3-c]pyridin-2(3H)-one]	72.5	80.9	< 50
C/C(Nc1ccn(C)n1)=C1/C(=O)Nc2cnc(-c3cncc(F)c3C)cc21 [Example 154, (Z)-5-(5-Fluoro-4-methylpyridin-3-yl)-3-(1-((1-methyl-1H-pyrazol-3-yl)amino)ethylidene)-1H-pyrrolo[2,3-c]pyridin-2(3H)-one]	69	82.5	100 to 500
CNC(=O)C(F)(F)n1ccc(N/C(C)=C2\C(=O)Nc3cnc(-c4cnccc4C)cc32)n1 [Example 155, (Z)-2,2-Difluoro-N-methyl-2-(3-((1-(5-(4-methylpyridin-3-yl)-2-oxo-1H-pyrrolo[2,3-c]pyridin-3(2H)-ylidene)ethyl)amino)-1H-pyrazol-1-yl)acetamide]	65.1	68.8	< 50
C/C(Nc1cnn(C[C@H](C)O)c1)=C1/C(=O)Nc2cnc(-c3cnccc3C)cc21 [Example 156, (S,Z)-3-(1-((1-(2-Hydroxypropyl)-1H-pyrazol-4-yl)amino)ethylidene)-5-(4-methylpyridin-3-yl)-1H-pyrrolo[2,3-c]pyridin-2(3H)-one]	60.6	80	50 to 100
